Measurements: article PMC4619319, “A potent anti-inflammatory peptide from the salivary glands of horsefly” (Parasites & Vectors, 2015)

Tests used:
[1] = test system: RAW264.7 cells; conditions: CCK-8, 24 h, concentration as high as 200 μg/mL
Protocol: (§1) Mouse peritoneal macrophages were prepared according to previous method. Brewer thioglycollate medium (3 %, w/v, Sigma-Aldrich, USA) was intraperitoneally injected to C57BL/6 mouse. After 3 days, the mouse was euthanized and intraperitoneally injected with 20 mL RPMI-1640 medium to collect peritoneal macrophages. RAW264.7 cells were cultured in RPMI 1640 medium (10 % FBS, 100 U/mL penicillin and 100 μg/mL streptomycin, Gibco, USA) at 37 °C humidified with 5 % CO2. Mouse macrophages, peritoneal macrophages and RAW264.7 cells, were seeded in a 96-well (2 × 10^4 cells/well) plate, and cultured in RPMI 1640 medium (100 μL) supplemented with 2 % FBS, 100 U/mL penicillin and 100 μg/mL streptomycin (Gibco, USA) at 37 °C in a humidified 5 % CO2 incubator. The cytotoxicity of cecropin-TY1 against mouse macrophages was determined by Cell Counting Kit-8 assay (CCK-8) following the kit instruction. In brief, serial 2-fold peptide dilutions were added to each well, and control wells received the same volume of phosphate-buffered solution (PBS, 8 g/L NaCl, 0.2 g/L KCl, 0.2 g/L KH2PO4, 2.89 g/L Na2HPO4 · 12H2O, pH 7.4). After 24-h incubation, CCK-8 solution (10 μL/well) was added and incubated for an additional 4 h. The absorbance at 450 nm was monitored on a microplate reader (Epoch Etock, BioTek, USA).

[2] = test system: mouse peritoneal macrophages; conditions: CCK-8, 24 h, concentration as high as 200 μg/mL
Protocol: as §1

[3] = test system: TNF-α transcription; experiment: LPS-stimulated TNF-α transcription in peritoneal macrophages (qPCR); assay type: cell-based, mouse; conditions: 20 μg/mL peptide, 100 ng/mL LPS, 6 h
Protocol: (§2) qPCR was performed using SYBR green master mix (Takara, Japan) on a Realplex Mastercycler real-time PCR system (Eppendorf, Germany) according to the manufacturer’s instruction. The gene transcription levels were normalized to GAPDH or β-actinas as illustrated in figure legends and calculated by ΔΔCt method. The accuracy of qPCR results were checked by melting curve analysis. qPCR primers were listed in Additional file 1: Table S1.
(§3) Cells were incubated with peptides (0, 5, 10, and 20 μg/mL) with or without 100 ng/mL LPS (from E. coli 0111:B4, Sigma-Aldrich, USA) for 6 h. After treatment, culture medium was collected for TNF-α, IL-1β and IL-6 quantification using enzyme-linked immunosorbent assay (ELISA) kits (Dakewei, China). Cells were washed with ice-cold PBS and lysed by Trizol reagent (Life Tech, USA). Total RNA was extracted for cDNA synthesis to quantify TNF-α, IL-1β and IL-6 transcription levels by qPCR as described in qPCR section.

[4] = test system: IL-1β transcription; experiment: LPS-stimulated IL-1β transcription in peritoneal macrophages (qPCR); assay type: cell-based, mouse; conditions: 20 μg/mL peptide, 100 ng/mL LPS, 6 h
Protocol: as §2, §3

[5] = test system: IL-6 transcription; experiment: LPS-stimulated IL-6 transcription in peritoneal macrophages (qPCR); assay type: cell-based, mouse; conditions: 20 μg/mL peptide, 100 ng/mL LPS, 6 h
Protocol: as §2, §3

[6] = test system: IL-6 production; experiment: LPS-stimulated IL-6 production in peritoneal macrophages (ELISA); assay type: cell-based, mouse; conditions: 20 μg/mL peptide, 100 ng/mL LPS, 6 h
Protocol: as §3

[7] = test system: P-ERK2; experiment: Western blot, LPS-induced P-ERK2 in peritoneal macrophages; assay type: cell-based, mouse; conditions: 20 μg/mL peptide, 100 ng/mL LPS, 30 min, band density ratio to β-actin
Protocol: (§4) Cells were treated with different concentrations of cecropin-TY1 (0, 5, 10, and 20 μg/mL) in the presence or absence of 100 ng/mL LPS (from E. coli 0111:B4, Sigma-Aldrich, USA). After 30-min incubation, cells were washed twice with ice-cold PBS and lysed with RIPA lysis buffer (Beyotime, China) on ice for 30 min according to our previous method. Protein concentration was quantified by BCA Protein Assay Kit (Thermo, Germany). About 40 μg protein was separated on a 10 % SDS-PAGE gel and transferred to a polyvinylidene difluoride membrane. The membrane was blocked by incubating with 5 % BSA (BD, USA) dissolved in Tris-buffered solution Tween-20 (TBST, 2.42 g/L Trisbase, 8 g/L NaCl, 0.1 % Tween 20, pH 7.6) for 2 h at room temperature. The membrane was then incubated with primary antibodies against ERK, phospho-ERK, p38, phospho-p38, JNK, phospho-JNK, phospho-IκBα, NF-κB p65 and phospho-NF-κB p65 (1:2000, Cell Signaling Technology, USA) and GAPDH/β-actin (1:5000, Santa Cruz Biotechnology, USA) overnight at 4 °C, respectively. After incubation, the immunoblot was washed three times with TBST for 5 min each time, and incubated with secondary antibody (1:5000, Cell Signaling Technology, USA) at room temperature for 1 h. Signals were measured by enhanced chemiluminescence kit in a dark room after washing three times with TBST for 10 min each time (TIANGEN, China).

[8] = test system: P-JNK1; experiment: Western blot, LPS-induced P-JNK1 in peritoneal macrophages; assay type: cell-based, mouse; conditions: 20 μg/mL peptide, 100 ng/mL LPS, 30 min, band density ratio to β-actin
Protocol: as §4

[9] = test system: P-p38; experiment: Western blot, LPS-induced P-p38 in peritoneal macrophages; assay type: cell-based, mouse; conditions: 20 μg/mL peptide, 100 ng/mL LPS, 30 min, band density ratio to β-actin
Protocol: as §4

[10] = cited from earlier work
Source text: Supplement 13071_2015_1149_MOESM1_ESM.docx, table 2: Table S2. Primary structural and biochemical characteristics of cecropin-TY1. | column: […]-NH2 39 +5 3970.22 Da 3970.66 Da 11.17

In the case of “GWLKKIGKKIERVGQNVRNAAISTLPIAQGAAGVAGALN-NH2 [cecropin-TY1, cecropin antimicrobial peptide from salivary glands of horsefly Tabanus yao, 39 residues, C-terminally amidated, synthesized]”, the “cytotoxicity (cell viability)” value [1] is reported as “didn’t show any cytotoxicity”, the “cytotoxicity (cell viability)” value [2] is reported as “didn’t show any cytotoxicity” and the “attenuation of LPS-stimulated TNF-α transcription” value [3] is reported as 60.3%. For the same substance, the “attenuation of LPS-stimulated IL-1β transcription” value [4] was 67.5%, the “attenuation of LPS-stimulated IL-6 transcription” value [5] was 94.1% and the “reduction of LPS-induced IL-6 production” value [6] was 76.2%. The “inhibition of LPS-induced P-ERK2 expression” value [7] was 84.9%, the “inhibition of LPS-induced P-JNK1 expression” value [8] was 61.9% and the “inhibition of LPS-induced P-p38 expression” value [9] was 46.4%. The Net charges [10] was 5 and the “Theoretical pI” value ([10]; theoretical) was 11.17.
